Assay results published in paper PMC8704367, “Systematic Analysis and Biochemical Characterization of the Caffeoyl Shikimate Esterase Gene Family in Poplar” (International Journal of Molecular Sciences, 2021).

Experiments:
Type in all cases: biochemical
[1] = target: T1, PoptoCSE2 (Populus tomentosa, UniProt A0A0S1VWZ0); experiment: HPLC-MS, appearance of caffeic acid; conditions: 100 uM substrate, 100 mM sodium phosphate pH 7.5, 0.5 mM DTT, 30 C; substrate made enzymatically with PoptoHCT6
T1 construct: gene CSE2; full-length CDS cloned from cambial zone cDNA into pET28a, His-tagged, E. coli BL21(DE3), Ni-NTA
T1 sequence (A0A0S1VWZ0 1-326): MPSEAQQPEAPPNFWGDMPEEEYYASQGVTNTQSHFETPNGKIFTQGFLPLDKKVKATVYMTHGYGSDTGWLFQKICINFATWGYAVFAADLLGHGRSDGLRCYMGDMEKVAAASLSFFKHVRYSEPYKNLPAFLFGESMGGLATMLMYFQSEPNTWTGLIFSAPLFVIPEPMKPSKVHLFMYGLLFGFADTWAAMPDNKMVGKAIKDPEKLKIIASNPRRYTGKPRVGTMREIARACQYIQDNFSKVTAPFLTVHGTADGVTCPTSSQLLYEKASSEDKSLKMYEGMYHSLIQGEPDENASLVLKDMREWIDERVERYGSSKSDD

[2] = target: T2, PoptoCSE1 (Populus tomentosa, UniProt A0A0S1VWX4); experiment: HPLC-MS, appearance of caffeic acid; conditions: 100 uM substrate, 100 mM sodium phosphate pH 7.5, 0.5 mM DTT, 30 C; substrate made enzymatically with PoptoHCT6
T2 construct: gene CSE1; full-length CDS cloned from cambial zone cDNA into pET28a, His-tagged, E. coli BL21(DE3), Ni-NTA
T2 sequence (A0A0S1VWX4 1-326): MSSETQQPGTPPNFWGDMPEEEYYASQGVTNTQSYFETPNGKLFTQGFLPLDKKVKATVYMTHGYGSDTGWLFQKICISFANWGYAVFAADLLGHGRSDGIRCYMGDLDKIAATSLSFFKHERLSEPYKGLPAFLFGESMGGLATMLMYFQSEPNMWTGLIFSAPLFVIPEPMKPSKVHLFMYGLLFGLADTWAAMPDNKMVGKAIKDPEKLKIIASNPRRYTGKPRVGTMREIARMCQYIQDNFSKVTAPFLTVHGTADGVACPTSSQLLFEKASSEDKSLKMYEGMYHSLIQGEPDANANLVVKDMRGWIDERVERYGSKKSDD

[3] = target: T3, PoptoHCT6 (Populus tomentosa, UniProt A0A0S1VWY1); experiment: preparative enzymatic synthesis of caffeoyl shikimate
T3 construct: gene HCT6; cloned from cambial zone cDNA into pET28a, His-tagged, E. coli BL21(DE3), Ni-NTA
T3 sequence (A0A0S1VWY1 1-431): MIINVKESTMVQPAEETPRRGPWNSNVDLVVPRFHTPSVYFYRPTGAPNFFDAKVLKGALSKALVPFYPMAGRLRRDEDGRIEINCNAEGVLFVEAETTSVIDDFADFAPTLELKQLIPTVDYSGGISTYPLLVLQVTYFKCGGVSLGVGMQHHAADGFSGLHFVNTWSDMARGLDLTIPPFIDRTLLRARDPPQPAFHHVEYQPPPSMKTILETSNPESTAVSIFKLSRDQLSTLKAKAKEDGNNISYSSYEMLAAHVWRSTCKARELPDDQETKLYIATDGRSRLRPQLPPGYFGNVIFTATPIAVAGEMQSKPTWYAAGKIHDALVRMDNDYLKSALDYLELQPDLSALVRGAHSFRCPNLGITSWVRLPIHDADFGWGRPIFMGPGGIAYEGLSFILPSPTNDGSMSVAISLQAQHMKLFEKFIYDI

O=C(/C=C/c1ccc(O)c(O)c1)O[C@@H]1CC(C(=O)O)=C[C@@H](O)[C@H]1O [caffeoyl shikimate]
HPLC-MS, appearance of caffeic acid [1]: PoptoCSE1 and PoptoCSE2 have detectable activity against caffeoyl shikimate
HPLC-MS, appearance of caffeic acid [2]: PoptoCSE1 and PoptoCSE2 have detectable activity against caffeoyl shikimate

CC(C)(COP(=O)(O)OP(=O)(O)OC[C@H]1O[C@@H](n2cnc3c(N)ncnc32)[C@H](O)[C@@H]1OP(=O)(O)O)[C@@H](O)C(=O)NCCC(=O)NCCSC(=O)/C=C/c1ccc(O)c(O)c1 [caffeoyl-CoA]
preparative enzymatic synthesis of caffeoyl shikimate ([3]; co-substrate shikimic acid): caffeoyl shikimate using enzymatic reaction catalyzed by purified recombinant PoptoHCT6 with caffeoyl-CoA and shikimic acid

O=C(O)C1=C[C@@H](O)[C@@H](O)[C@H](O)C1 [shikimic acid]
preparative enzymatic synthesis of caffeoyl shikimate ([3]; co-substrate caffeoyl-CoA): caffeoyl shikimate using enzymatic reaction catalyzed by purified recombinant PoptoHCT6 with caffeoyl-CoA and shikimic acid
